Laboratory results reported in patent US12582621B2, “Compositions and methods for delivering pharmaceutical agents” (Arizona Board of Regents on Behalf of the University of …, priority 2020, dated 2026).

System: radiation-induced oral mucosistis
Assay: Fractionated radiation-induced oral mucositis in mice, topical suramin
Assay type: in vivo, C57BL/6J mice
Settings: 8 Gy on 5 consecutive days, topical suramin 50 mg/ml solution by intraoral swab twice daily, assessed day 7
Description: The head and neck region of six-week-old male and female C57BL/6J mice (4-5 mice/group/sex) were exposed to collimated fractionated radiation (8 Gy on 5 consecutive days). Topically applied suramin (50 mg/ml solution) was applied on day 1 of radiation by intraoral swab and twice daily throughout the experimental period. On day 7, all mice were euthanized and tongues were assessed for development and extent of oral mucositis ulceration on the dorsal surface of the tongue using 1% toluidine blue. Epithelial erosion and ulceration were visible as a deep blue color and ulceration area was measured using NIH Image J software. Histopathological grading (0-4 scale) using an established scale was used to assess OM staging and epithelial thinning.

In the case of `Cc1ccc(C(=O)Nc2ccc(S(=O)(=O)O)c3cc(S(=O)(=O)O)cc(S(=O)(=O)O)c23)cc1NC(=O)c1cccc(NC(=O)Nc2cccc(C(=O)Nc3cc(C(=O)Nc4ccc(S(=O)(=O)O)c5cc(S(=O)(=O)O)cc(S(=O)(=O)O)c45)ccc3C)c2)c1` [suramin, Suramin], the “effect on radiation-induced oral mucositis” value is reported as “diminishes radiation-induced oral mucosistis”.
